Assay results: BigSolDB 2.1

Q: Which solubility (mole fraction) (in acetone, 303.2 K) does the source give for `c1ccc(P(c2ccccc2)c2ccccc2)cc1` here?
A: 0.089

Q: What about the solubility (mole fraction) (in acetone, 308.1 K) of the same compound?
A: 0.12

Q: What about the solubility (mole fraction) (in acetone, 313.4 K) of the same compound?
A: 0.14

Q: And the solubility (mole fraction) (in acetone, 318.2 K)?
A: 0.19

Q: And the solubility (mole fraction) (in acetone, 323.5 K)?
A: 0.25

Q: What about the solubility (mole fraction) (in acetone, 327.8 K) of the same compound?
A: 0.33

Q: And the solubility (mole fraction) (in acetone, 333.1 K)?
A: 0.42

Q: What about the solubility (mole fraction) (in benzene, 303.3 K) of the same compound?
A: 0.069

Q: And the solubility (mole fraction) (in benzene, 308.6 K)?
A: 0.095

Q: What about the solubility (mole fraction) (in benzene, 312.9 K) of the same compound?
A: 0.12

Q: What about the solubility (mole fraction) (in benzene, 318.1 K) of the same compound?
A: 0.16

Q: What about the solubility (mole fraction) (in benzene, 323.2 K) of the same compound?
A: 0.22

Q: What about the solubility (mole fraction) (in benzene, 328.1 K) of the same compound?
A: 0.28

Q: What about the solubility (mole fraction) (in benzene, 333.2 K) of the same compound?
A: 0.37

Q: And the solubility (mole fraction) (in ethanol, 303.5 K)?
A: 0.0095

Q: And the solubility (mole fraction) (in ethanol, 308.3 K)?
A: 0.012

Q: And the solubility (mole fraction) (in ethanol, 313.3 K)?
A: 0.016

Q: What about the solubility (mole fraction) (in ethanol, 318.6 K) of the same compound?
A: 0.022

Q: What about the solubility (mole fraction) (in ethanol, 323.2 K) of the same compound?
A: 0.028

Q: What about the solubility (mole fraction) (in ethanol, 327.9 K) of the same compound?
A: 0.038

Q: And the solubility (mole fraction) (in ethanol, 333 K)?
A: 0.05

Q: And the solubility (mole fraction) (in isopropanol, 303.1 K)?
A: 0.0077

Q: What about the solubility (mole fraction) (in isopropanol, 308.4 K) of the same compound?
A: 0.01

Q: And the solubility (mole fraction) (in isopropanol, 313.3 K)?
A: 0.014

Q: What about the solubility (mole fraction) (in isopropanol, 318.2 K) of the same compound?
A: 0.019

Q: What about the solubility (mole fraction) (in isopropanol, 322.9 K) of the same compound?
A: 0.025

Q: And the solubility (mole fraction) (in isopropanol, 328.4 K)?
A: 0.033

Q: What about the solubility (mole fraction) (in isopropanol, 333.2 K) of the same compound?
A: 0.045

Q: What about the solubility (mole fraction) (in toluene, 302.4 K) of the same compound?
A: 0.05

Q: What about the solubility (mole fraction) (in toluene, 308.2 K) of the same compound?
A: 0.07

Q: And the solubility (mole fraction) (in toluene, 313.7 K)?
A: 0.1

Q: And the solubility (mole fraction) (in toluene, 318.2 K)?
A: 0.13

Q: What about the solubility (mole fraction) (in toluene, 323.3 K) of the same compound?
A: 0.18

Q: What about the solubility (mole fraction) (in toluene, 328.3 K) of the same compound?
A: 0.24

Q: And the solubility (mole fraction) (in toluene, 333.4 K)?
A: 0.32
